Test results reported in patent US9493439B1, “Proteasome inhibitors” (UNIVERSITY OF KENTUCKY RESEARCH FOUNDATION, priority 2014, dated 2016).

Experiments:
[1] = tested on: C-L activity of proteasomes in RPMI 8226 cell extracts; assay: C-L activity of proteasomes in RPMI 8226 cell extracts (Z-LLE-AMC); format: biochemical, human
Description: (§1) The inhibitory effects of G4-1 on the CT-L, C-L and T-L activities were measured by assessing the hydrolysis of the fluorogenic proteasome substrates Suc-LLVY-AMC, Z-LLE-AMC and Boc-LRR-AMC, respectively. […] FIG. 5C provides a reaction progress curve with 30 min preincubation of RPMI 8226 cell extracts and G4-1. […] FIG. 5E includes the potency of G4-1 in inducing cell death in BxPC-3 cell lines with acquired resistance to bortezomib or carfilzomib. FIG. 5F provides a comparison of IC50 values of BxPC-3 sublines resistant to carfilzomib or bortezomib to its parental cell lines.
(§2) In separate experiments, cytosolic extracts of RPMI-8226 or BxPC-3 cells were prepared according to the method of Kisselev and Goldberg^25 and used in place of purified proteasomes. The fluorescence from liberated AMC of the subunit-selective probe substrates was measured as described above.

[2] = tested on: variety of cancer cell lines including LNCaP prostate cancer cells; assay: Cytotoxic effects, multiple cancer cell lines; format: cell-based, human
Excerpt: (§3) Human cancer cell lines BxPC-3, H358, H-23, LNCaP, Panc-1, and RPMI 8226 were obtained from the ATCC (American Type Culture Collection) and maintained in the ATCC-recommended media, DMEM or RPMI 1640 supplemented with 10% fetal bovine serum (from GIBCO, CeliGro, and Atlanta Biologicals). BxPC-3 cells with acquired resistance to bortezomib or carfilzomib were established by growing them in the presence of stepwise in-creasing concentrations of the respective drug over a period of approximately 6 months. In order to determine the extent of drug resistance, cytotoxicity assays were performed using BxPC-3 sublines adapted to 60 nM bortezomib and 200 nM carfilzomib, respectively.
(§4) The cytotoxic effects of G4 and its analogs were determined using CellTiter Glo assay or CellTiter 96 Aqueous One Solution Cell Proliferation assay (Promega). Adherent cells (Panc-1, LNCaP, BxPC-3, bortezomib- or carfilzomib-resistant BxPC-3 sublines) growing in log phase were plated at 7000-10000 cells per well. RPMI 8226 cells growing in suspension were collected by centrifugation and plated at 10 000 cells per well. […] After 72 h, the cell viability was determined using the assay protocol recommended by the manufacturers. The resulting signals were quantified using a Veritas microplate luminometer or a SpectraMax M5 microplate spectrophotometer (Molecular Devices).

[3] = Microsomal stability assay, mouse; format: in vitro ADME; conditions: mouse liver microsomes, compared to carfilzomib and bortezomib
Description: (§5) The metabolic stability profiles of G4-1 and reference compounds (carfilzomib and bortezomib) were assessed by monitoring the disappearance of the test compounds in the presence of liver microsomes. A typical incubation mixture (100 sL total volume) for metabolic stability studies contained 1 sM test compounds, 0.5 mg/mL microsomal protein (pooled Balb/c mouse liver microsomes prepared in-house or BD UltraPool human liver microsomes), 100 mM Tris-HCl buffer (pH 7.4), and NADPH-generating system (5 mM isocitric acid, 0.2 unit/mL isocitric acid dehydrogenase, 5 mM magnesium chloride, 1 mM NADP^+). After preincubation at 37° C. for 5 min, the reactions were started by addition of NADP^+ and further incubated for another 0, 5, 10, 20 min. For control experiments, NADPH and/or liver microsomes were omitted from these incubations. The reactions were terminated by adding 100 sL of ice-cold acetonitrile containing phenytoin (1 sM) as internal standard and keeping on ice for 30 min, followed by centrifugation at 16 100 g for 15 min to obtain the supernatant. Aliquots (5 sL) were then analyzed for substrate disappearance using liquid chromatography-tandem mass spectrometry (Agilent 1200 HPLC instrument interfaced with Applied Biosystems Qtrap 3200) equipped with an electrospray ion source.

[4] = Microsomal stability assay, human; format: in vitro ADME; conditions: human liver microsomes, compared to carfilzomib and bortezomib
Description: as §5

[5] = tested on: T-L activity of proteasomes in RPMI 8226 cell extracts; assay: T-L activity of proteasomes in RPMI 8226 cell extracts (Boc-LRR-AMC); format: biochemical, human
Description: as §1, §2

[6] = tested on: BxPC-3 cell lines with acquired resistance to bortezomib or carfilzomib; assay: Cytotoxic effects, BxPC-3 sublines with acquired resistance to bortezomib or carfilzomib; format: cell-based, human
Excerpt: as §3, §4

LNCaP tumors [7] = conditions: mouse, in vivo
Description: (§6) Male nude mice bearing LNCaP tumors received intraperitoneal injections of either G4-1 (5 mg/kg), carfilzomib (5 mg/kg), or vehicle alone (8% DMSO in HP-β-cyclodextrin and sodium citrate) twice a week for 4 weeks (n=5 mice/group). Results are expressed as mean and standard deviation.
(§7) Six-week-old male BALB/c athymic nude mice (purchased from Orient Bio Inc., SungNam, Republic of Korea) were maintained in accordance with the National Institute of Toxicological Research of the Korea Food and Drug Administration guidelines as well as the regulations for the care and use of laboratory animals of the animal ethics committee of the Konyang University. LNCaP cells (2×10^6 cells/50 sL) were subcutaneously implanted into each animal. After the xenograft tumors had grown to a size of ‘−100 mm^3, mice (n=5/group) were dosed intraperitoneally twice a week for 4 weeks with G4-1 (5 mg/kg), carfilzomib (5 mg/kg), or vehicle only (8% DMSO in HP-Beta-CD and citrate). Tumor volumes (calculated using the following formula, (width)^2×length/2) and body weights were measured every 4 days during the experimental period. At the end of the experimental period (at day 30), mice were euthanized by cervical dislocation and tumors were isolated and weighed.

[8] = tested on: proteasome in RPMI 8226 cell lysates; assay: Jump dilution reversibility assay; format: biochemical, human; conditions: preincubation of RPMI 8226 cell extracts for 30 min
Description: In further investigation of the mode of proteasome inhibition by G4-1, a dilution assay was performed following a procedure previously reported.^26 Briefly, RPMI 8226 cell lysates containing 30/4 g of total protein were incubated with G4-1 (10/4M) in 20S proteasome assay buffer for 30 min at room temperature. Lysates treated with G4-1 were subsequently transferred to a semimicrocuvette, and the baseline proteasome activity was determined by measuring the hydrolysis rate of Suc-LLVY-AMC. After establishment of the baseline, lysates treated with G4-1 were rapidly mixed with the 20S proteasome assay buffer, yielding 25-fold dilution. Following this 25-fold dilution from 10 to 0.4/4M G4-1, the hydrolysis of Suc-LLVY-AMC was again monitored over approximately 30 min.

LNCaP tumors [9] = assay: In vivo efficacy assay, LNCaP xenograft; conditions: 5 mg/kg intraperitoneally twice a week for 4 weeks
Description: as §6, §7

[10] = tested on: CT-L activity of proteasomes in RPMI 8226 cell extracts; assay: CT-L activity of proteasomes in RPMI 8226 cell extracts (Suc-LLVY-AMC); format: biochemical, human
Description: as §1, §2

[11] = molecular target: T1, CT-L activity of purified constitutive proteasome (Homo sapiens, UniProt P28074); assay: G4 analogs against the CT-L activity of purified proteasomes; format: biochemical
T1 construct: purchased R&D Systems
Description: Initially, purified 20S human proteasomes (CP and IP, R&D Systems) were used to assess the in vitro inhibition of proteasome catalytic activities by G4 and its analogs. In the 96-well format assays involving a 100/4 L total volume, 20S proteasomes (0.5/4 g/mL) were incubated with G4, its analogs, or reference compounds (e.g., carfilzomib) in assay buffer (20 mM Tris-HCl, 0.5 mM EDTA, 0.035% SDS) for 30 min at room temperature. Reactions were initiated by the addition of individual subunit-selective fluorogenic substrates containing the AMC (7-amino-4-methylcoumarin) group. The following substrates were used: for /31 activity, Ac-nLPnLD-AMC (100/4M); for /32 and /32i activity, Boc-LRR-AMC (200/4M); for /35 activity, Ac-WLA-AMC (20/4M); for /31i activity, Ac-PAL-AMC (100/4M); for /35i activity, Ac-ANW-AMC (100/4M). The fluorescence of liberated AMC was measured over a period of 90 min at room temperature using excitation and emission wavelengths of 360 and 460 nm on a SpectraMax M5 fluorescence plate reader (Molecular Devices).
In comparison, modifications at the ring D had little impact on the activity of G4. […] The mechanism by which these compounds enhance the CT-L activity of proteasome is unclear at this time.

[12] = Phase II clinical trials; cited from earlier work

Compound | inhibition of proteasomal C-L activity of cell extracts [1] | anticancer activity against cancer cell lines [2] | metabolic stability [3] | metabolic stability [4] | activity against the T-L activity of cell extracts [5] | anticancer effect in cell line models with acquired resistance [6] | systemic toxicity in mice (LNCaP tumors [7]) | inhibition of proteasomal activity after preincubation [8] | tumor growth in vivo (LNCaP tumors [9]) | inhibition of proteasomal CT-L activity of cell extracts [10] | inhibitory potency against the CT-L activity of purified proteasomes [11] | median duration of response [12] | overall survival [12] | response rate [12] | body weight over the course of treatment (LNCaP tumors [9])
Cc1ccc(OS(=O)(=O)c2cccc(C(F)(F)F)c2)c(-c2cc(-c3ccccc3)n(CC(=O)N[C@@H]3CCNC3)n2)c1 [G4-1] | effectively inhibit | good anticancer activity | excellent metabolic stability | excellent metabolic stability | no activity | not negatively impacted | without apparent systemic toxicity | nearly complete inhibition | effectively suppressed tumor growth | effectively inhibit | one of the most potent inhibitors |  |  |  | 
CC(C)C[C@H](NC(=O)[C@H](CCc1ccccc1)NC(=O)CN1CCOCC1)C(=O)N[C@@H](Cc1ccccc1)C(=O)N[C@@H](CC(C)C)C(=O)[C@@]1(C)CO1 [carfilzomib] |  |  |  |  |  |  |  |  |  |  |  | 7.8 months | ~16 months | under 25% | weight loss
